Data as given in article PMC4366154, “Easy to Use Plastic Optical Fiber-Based Biosensor for Detection of Butanal” (PLoS ONE, 2015).

Target: T1, porcine odorant-binding protein (pOBP) (Sus scrofa, UniProt P81245)
T1 construct: recombinant in E. coli BL21-DE3 from pGEX2TK as GST fusion, GST cut off on column with thrombin
T1 sequence (P81245 1-157): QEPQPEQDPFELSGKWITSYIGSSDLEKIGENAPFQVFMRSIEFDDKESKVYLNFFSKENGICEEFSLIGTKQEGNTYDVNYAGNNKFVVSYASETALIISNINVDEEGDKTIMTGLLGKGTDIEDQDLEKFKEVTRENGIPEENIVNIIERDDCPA
Assay: direct fluorescence titration, emission at […] nm
Conditions: 20 mM Tris-HCl pH 7.8, 1.0 μM pOBP, overnight at 4 °C

In the case of `Nc1cccc2cc3ccccc3cc12` [1-amino-anthracene], the “direct fluorescence titration, emission at 480 nm” value is reported as “direct titrations using the fluorescent ligand 1-amino-anthracene (AMA)”.
